Measured values reported in patent publication US8722719B2, “Amine compound and use for same” (Kureha Corporation, priority 2010, dated 2014).

How the values were obtained:
[1] = test system: HIV-1 IIIB infected MT-4 cells; experiment: anti-HIV activity test (MTT viable cell count); format: cell-based; conditions: Human immunodeficiency virus 1, MT4, 120 h, MOI 0.01, 5 days, MTT method, read-out: EC50 (concentration at which cellular damage due to HIV infection is inhibited by 50%)
Method: In Test Example 1, the amine compound according to the present invention was subjected to the anti-HIV activity test. HIV-1 IIIB infected MT-4 cells (3.0×10^4 cells/well, MOI (multiplicity of infection): 0.01) were added to a 96-well microtiter plate together with the test compound (compound 1, A, or B) at a different concentration immediately after infection. After culturing the cells at 37° C. for 5 days using a carbon dioxide incubator, the number of viable cells was measured by the MTT (tetrazolium) method ([…] et al., J. Virol. Method, 20, 309-321, 1988).

[2] = oral absorption properties
[3] = hydrolysis in serum (background finding of the inventors); format: in vitro ADME; conditions: species not stated

oral absorption properties [2] | SMILES | EC50 [1] | hydrolysis in serum [3]
 | CCCN(CCC)CCCCN(CCC(=O)OCCN(C)C)Cc1ccc(CN(Cc2ncc[nH]2)Cc2nccn2C)cc1 [Compound 1, 2-dimethylaminoethyl 3-[(4-dipropylaminobutyl)(4-{[(1H-imidazol-2-ylmethyl)(1-methyl-1H-imidazol-2-ylmethyl)amino]methyl}benzyl)amino]propionate] | 3 nM | 
poor oral absorption properties | CCCN(CCC)CCCCN(CCC(=O)O)Cc1ccc(CN(Cc2ncc[nH]2)Cc2nccn2C)cc1 [Compound A, 3-[(4-dipropylaminobutyl)(4-{[(1H-imidazol-2-ylmethyl)(1-methyl-1H-imidazol-2-ylmethyl)amino]methyl}benzyl)amino]propionic acid] | 3 nM | 
 | CCCN(CCC)CCCCN(CCC(=O)OCC)Cc1ccc(CN(Cc2ncc[nH]2)Cc2nccn2C)cc1 [Compound B, ethyl 3-[(4-dipropylaminobutyl)(4-{[(1H-imidazol-2-ylmethyl)(1-methyl-1H-imidazol-2-ylmethyl)amino]methyl}benzyl)amino]propionate] | 3 nM | hydrolyzed to only a small extent in serum
